Assay results published in US20240076347A1, “METHODS FOR PREVENTING FUNGAL INFECTIONS” (Cidara Therapeutics, Inc., priority 2016, published 2024).
Numbered stars: 1 amine (or outer) side, 2 acyl side, 3 side chain; on linkers, the order of the positions; unused ones are H or OH. Bridge positions count the residues as written; N and C are the ends. Square brackets hold non-standard residues; d marks the D form. Peptide text beside a SMILES is read from it. * marks the point of attachment. ξ: configuration not given here. Orn(4R-OH,5R-OCH2CH2NMe3+) = C[N+](C)(C)CCO[C@@H](N[*:3])[C@H](O)C[C@H](N[*:1])C(=O)[*:2]; pTerphenylCO(4''-OnC5H11) = CCCCCOc1ccc(-c2ccc(-c3ccc(C(=O)*)cc3)cc2)cc1; hTyr(3S-OH,4S-OH) = N[C@H](C(=O)O)[C@H](O)[C@@H](O)c1ccc(O)cc1; X1 = C[C@H]1CN([*:1])C(C(=O)[*:2])C1O; Hyp = O=C(O)[C@@H]1C[C@@H](O)CN1; ξT = CC(O)C(N)C(=O)O

Experiments:
[1] = system: Aspergillus fumigatus ATCC; experiment: Prophylaxis, neutropenic ICR mouse aspergillosis model, survival; type: in vivo; conditions: 14 days
Experimental: Aspergillosis model: ICR mice (6/group) were rendered neutropenic by cyclophosphamide on Day −3 (6 mg/mouse), Day +1, and Day +4 (2 mg/mouse). Challenge with Aspergillus fumigatus ATCC via IV (100 μL, […] CFU/mouse) occurred on Day 0. Prior to challenge, mice were given one SC dose (5, 10 or 20 mg/kg) of CD101 on Day −5, Day −3, or Day −1. Survival was monitored for 14 days.

[2] = system: Candida albicans (ATCC SC5314); experiment: Disseminated candidiasis in immunocompetent DBA/2 mice, prophylaxis, kidney fungal burden; type: in vivo
Experimental: Cultures of Candida albicans (ATCC SC5314) were grown overnight at 37° C. in an ambient atmosphere on Sabouraud agar. Cultures were removed from the incubator, aseptically transferred to tubes of phosphate buffered saline (PBS), and an optical density was determined at 600 nm. The cultures were diluted to provide a challenge inoculate of approximately 5.0 log10 CFU per mouse in a volume of 100 μL. Each animal was administered an intravenous (IV) challenge in a volume of 100 IL on Day 0. Instillation of the challenge constituted time 0 hour for the study.
Mice were treated with CD101 one time via subcutaneous (SC) injection prior to challenge on either Day −5, Day −3, Day −1 or Day 0 per Table 3. Micafungin and vehicle controls were administered on Day 0 as per Table 3. Day 0 treatment or control administration occurred immediately following the challenge. Test articles were administered in a volume of 0.5 mL.
The primary endpoint used to assess progress of the infection was mean CFU burden per gram of kidney tissue. At 24 hours post-challenge, mice were humanely euthanized via CO2 overexposure. Kidneys were aseptically removed, weighed, and transferred to sterile tubes containing 2 mL of PBS. Tissues were homogenized with a mini-bead beater. Serial dilutions of the tissue homogenates were plated on Sabouraud dextrose agar plates and incubated at 37° C. for 24-48 hours. CFU/g tissue was determined from colony counts.

[3] = system: C. albicans SC-5314 biofilms; experiment: Adhesion phase biofilms (prevention) on silicone elastomer discs; type: cell-based, Candida albicans
Experimental: Biofilms were formed on silicone elastomer (SE) discs using a catheter-associated-biofilm model (Chandra et al., Nature Protocols 3:1909, 2008; Chandra et al., J. […] Chandra et al., J. Dental Research 80: 903, 2001). For evaluation of activity against adhesion phase biofilms (prevention), Candida cells were adhered to catheter discs for 90 min. […] Discs incubated with fluconazole or media alone were used as controls in all experiments. […] Chandra et al., J. […] Chandra et al., J. Dental Research 80: 903, 2001). Following incubation with drugs, discs were transferred to fresh plates containing phosphate buffered saline with XTT and menadione, incubated for 3 h at 37° C. and optical density was read at 492 nm. Separate batches of biofilms were stained with fluorescent dyes (FUN1™, CONA) and observed under Confocal Scanning Laser Microscope (CSLM) to evaluate biofilm architecture and thickness (Chandra et al., Nature Protocols 3:1909, 2008; Chandra et al., J. […] Statistical analyses for all data were performed using GraphPad Prism 6 software. Drug treated groups were compared to control untreated groups using unpaired t-tests.

[4] = system: A. fumigatus clinical isolates; conditions: SENTRY surveillance (Pfaller, et al 2017); cited from earlier work
[5] = Monkey SC tolerability study; type: in vivo, cynomolgus monkeys
Experimental: Therefore, only local tolerability (and PK) of CD101 by SC administration required evaluation. […] Plasma concentrations were then quantified by liquid chromatography with tandem mass spectrometric detection (LC-MS/MS). Bioavailability from SC dosing was calculated by comparing the calculated area under the concentration-time profile (AUC) from SC against the AUC from IV administration of the same dose.
Therefore, a separate study was designed to evaluate the tolerability of a SC dose of CD101 as a highly concentrated solution (100 mg/mL; 30 mg/kg) in two cynomolgus monkeys. […] The drug reaches a maximum concentration within a few hours then remains nearly constant over the course of 10 days.

CCCCCOc1ccc(-c2ccc(-c3ccc(C(=O)N[C@H]4C[C@@H](O)[C@@H](OCC[N+](C)(C)C)NC(=O)C5C(O)[C@@H](C)CN5C(=O)[C@H]([C@@H](C)O)NC(=O)[C@H]([C@H](O)[C@@H](O)c5ccc(O)cc5)NC(=O)[C@@H]5C[C@@H](O)CN5C(=O)C(C(C)O)NC4=O)cc3)cc2)cc1 (stereo partly drawn) [CD101] ({pTerphenylCO(4''-OnC5H11)}-[Orn(4R-OH,5R-OCH2CH2NMe3+)][ξT][Hyp][hTyr(3S-OH,4S-OH)]T[X1]; lactam 1-C)
survival ([1]; 5 mg/kg SC): increased survival when prophylaxis was given closer to challenge | increases in survival compared with vehicle ([1]; 5, 10 and 20 mg/kg SC on Day −5, −3 or −1): > 50% | survival ([1]; 10 and 20 mg/kg SC, any prophylaxis day): All animals in the 10 and 20 mg/kg groups survived | kidney CFU ([2]; 3 mg/kg SC Day −1, all but one animal): cleared the infection completely | kidney CFU ([2]; 3 mg/kg SC on Day −5 and Day −3 (two doses, inadvertent)): completely cleared the infection | kidney CFU ([2]; 10 or 30 mg/kg SC at all pre-challenge time points, 24 hr harvest): cleared the infection completely | biofilm architecture (CSLM) ([3]; 0.25 and 1 μg/ml): only remnants of adhered cells, and no biofilm maturation | biofilm metabolic activity (XTT) ([3]; 0.25 and 1 μg/ml, 24 h, vs untreated, P<0.05): significantly less biofilms | thickness of biofilms ([3]; CD101 exposed, untreated control 36 μm, P<0.05): 4 μm | MEC90 [4]: 0.015 µg/mL | local (injection site) tolerability ([5]; single 30 mg/kg SC (100 mg/mL)): no sign of irritation or local (injection site) adverse toxicity | bodyweight and food consumption ([5]; single 30 mg/kg SC, 10 days follow-up): no effect on bodyweight or food consumption
